Data as given in patent publication US8283310B2, “Hepatitis C virus inhibitors” (priority 2008, dated 2012).

Key:
[1] = system: HCV genotype 1a replicon (H77) in HUH-7 cells; test: HCV replicon luciferase reporter assay, genotype 1a; type: cell-based; settings: Hepatitis C virus, Huh-7, 72 h, read-out: 1a/1b EC50 (nM): 1a
Text: A stable HCV genotype 1a replicon cell line was generated with a similar genomic map as described above for the 1b replicon cell line. An additional adaptive substitution at position 1496 (proline to leucine) was also introduced (Lemm J A, Liu M, Rose R E, Fridell R, O′Boyle Ii D R, Colonno R, Gao M. Intervirology. 2005 48(2-3):183-91). The sequence of the H77 infectious clone (see above for details) was used to generate the sub-replicon which also contained the selectable marker G418 and the Renilla luciferase gene.
(§1) The HCV replicon luciferase assay was developed to monitor the inhibitory effects of compounds described in the disclosure on HCV viral replication. […] After 3 days incubation at 37° C., cells were analyzed for Renilla Luciferase activity using the EnduRen as substrate (Promega cat 4E6485). […] The plates were incubated for 2 hrs at 37° C. and then read immediately for 30 seconds on the Viewlux Imager (PerkinElmer) using a luminescence program. […] The fluorescence signal from each well was read, with an excitation wavelength at 525/10 nm and an emission wavelength of 598/10 nm, on the Viewlux Imager.
(§2) The percentage inhibition was calculated using the formula below:
(§3) [formula] The values were graphed and analyzed using XLfit to obtain the EC50 value.

[2] = system: HCV strain 1b replicon in HUH-7 cells; test: HCV replicon luciferase reporter assay, genotype 1b; type: cell-based; settings: Hepatitis C virus, Huh-7, 72 h, read-out: 1a/1b EC50 (nM): 1b
Text: An HCV replicon whole cell system was established as described by Lohmann V, Korner F, Koch J, Herian U, Theilmann L, Bartenschlager R., Science 285(5424):110-3 (1999). This system enabled us to evaluate the effects of our HCV Protease compounds on HCV RNA replication. Briefly, using the HCV strain 1b sequence described in the Lohmann paper (Assession number: AJ238799), an HCV cDNA was synthesized by Operon Technologies, Inc. (Alameda, Calif.), and the full-length replicon was then assembled in plasmid pGem9zf(+) (Promega, Madison, Wis.) using standard molecular biology techniques. […]
as §1, §2, §3

[3] = biological target: T1, HCV NS3/4A protease complex (Hepatitis C virus genotype 1a, UniProt P27958, C1454S/C1711G); test: FRET peptide assay to monitor HCV NS3/4A proteolytic activity; type: biochemical; settings: recombinant NS3/4A protease complex, RET S1 FRET peptide substrate; strain not given
T1 construct: DNA encoding the recombinant HCV NS3/4A protease complex (amino acids 1027 to 1711) for these strains; inferred from pET21b vector and Ni-NTA purification; made in house; host or cells: Escherichia coli BL21 (DE3), pET21b
T1 sequence (P27958 1027-1711 C1454S/C1711G, one chain of several): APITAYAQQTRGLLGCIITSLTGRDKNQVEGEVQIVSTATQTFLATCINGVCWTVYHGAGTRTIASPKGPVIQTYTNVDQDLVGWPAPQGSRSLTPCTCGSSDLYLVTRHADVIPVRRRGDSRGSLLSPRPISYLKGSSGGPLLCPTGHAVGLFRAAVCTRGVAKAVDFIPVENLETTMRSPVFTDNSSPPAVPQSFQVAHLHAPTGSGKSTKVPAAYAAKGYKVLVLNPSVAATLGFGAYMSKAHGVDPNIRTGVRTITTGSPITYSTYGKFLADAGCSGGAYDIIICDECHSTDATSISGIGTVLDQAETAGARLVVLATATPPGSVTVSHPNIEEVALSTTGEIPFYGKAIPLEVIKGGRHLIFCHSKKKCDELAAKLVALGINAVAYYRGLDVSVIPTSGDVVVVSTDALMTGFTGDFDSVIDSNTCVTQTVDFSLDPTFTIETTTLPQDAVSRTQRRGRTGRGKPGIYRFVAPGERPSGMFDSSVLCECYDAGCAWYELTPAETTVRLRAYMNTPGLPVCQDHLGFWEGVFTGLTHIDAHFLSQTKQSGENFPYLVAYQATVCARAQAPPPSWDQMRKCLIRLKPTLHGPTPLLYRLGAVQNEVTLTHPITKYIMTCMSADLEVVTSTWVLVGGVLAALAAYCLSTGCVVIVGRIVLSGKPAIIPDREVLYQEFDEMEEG
Text: HCV NS3 protease complexes, derived from the BMS strain, H77 strain or J4L65 strain, were generated, as described below. These purified recombinant proteins were generated for use in a homogeneous assay (see below) to provide an indication of how effective compounds of the present disclosure would be in inhibiting HCV NS3 proteolytic activity.
The H77 and J4L6S strains were used for production of recombinant NS3/4A protease complexes. DNA encoding the recombinant HCV NS3/4A protease complex (amino acids 1027 to 1711) for these strains was manipulated as described by P. Gallinari et al. (see Gallinari P, Paolini C, Brennan D, Nardi C, Steinkuhler C, De Francesco R. Biochemistry. 38(17):5620-32, (1999)). Briefly, a three-lysine solubilizing tail was added at the 3′-end of the NS4A coding region. The cysteine in the P1 position of the NS4A-NS4B cleavage site (amino acid 1711) was changed to a glycine to avoid the proteolytic cleavage of the lysine tag. Furthermore, a cysteine to serine mutation was introduced by PCR at amino acid position 1454 to prevent the autolytic cleavage in the NS3 helicase domain. […]

| SMILES | EC50 [1] | EC50 [2] | IC50 [3] |
| --- | --- | --- | --- |
| CC(C)(C)OC(=O)N[C@H](C(=O)N1C[C@]2(c3ccc(-c4ccccc4)cc3)C[C@H]1C(=O)N[C@@]1(C[C@H]1C(F)F)C(=O)NS(=O)(=O)C1(CCCCC/C=C/CS2)CC1)C(C)(C)C [Compound 1] | 49 nM | 21 nM | 2 nM |
| CC(C)(C)OC(=O)N[C@H](C(=O)N1C[C@]2(c3ccc(-c4ccccc4)cc3)C[C@H]1C(=O)N[C@@]1(C[C@H]1C(F)F)C(=O)NS(=O)(=O)C1(CCCCC/C=C\CS2)CC1)C(C)(C)C [Compound 2] | 95 nM | 33 nM | 4 nM |
